Measurements as given in patent publication US20230129866A1 (PureTech LYT 100, Inc., priority 2020, published 2023).
Like-named read-outs stand apart in the source and are kept apart here.

Assays:
LPS-induced plasma TNFα = test: LPS-induced plasma TNF-α after oral pretreatment in rats; type: in vivo, Sprague-Dawley rats; settings: Mean ± St. Dev., n = 6-8; for Plasma TNFα concentrations 4 hours after LPS: vehicle 693 ± 553; for Plasma TNFα concentrations 1.5 hours after LPS: vehicle 75389 ± 29107
Procedure: (§1) LPS was diluted with sterile saline to […] and sonicated at 40° C. for 20 minutes to generate a stock solution and stored at 4° C. Each day of use, the stock solution was further diluted to 0.03 mg/mL in sterile saline.
(§2) Male Sprague-Dawley rats with indwelling femoral and jugular venous catheters (n=6-8 per dose and test article group) were used in this study. […] Sixty minutes after the oral dose, 0.03 mg/kg of LPS in 1 mL/kg saline was infused into the jugular vein.
(§3) Blood samples were collected from the femoral vein into heparin-coated syringes 15 minutes prior to the LPS infusion (45 minutes after oral doses of test article), 90 minutes after the LPS infusion and 4 hours after the LPS infusion. Plasma was prepared by centrifugation of the blood samples at 14,000 rpm for 10 minutes. Plasma samples were stored at −70 ° C. until analysis.

LPS-induced plasma IL-6 = LPS-induced plasma IL-6 after oral pretreatment in rats; type: in vivo, Sprague-Dawley rats; settings: Mean ± St. Dev, n = 6-8; for Plasma IL-6 concentrations 4 hours after LPS: vehicle 13989 ± 6125; for Plasma IL-6 concentrations 1.5 hours after LPS: vehicle 40423 ± 8653
Procedure: as §1, §2, §3

[1] = rat, in vivo
Procedure: The original male TK animals received 1000 mg/kg of SD-559 on Day 1 and continued on study. The protocol was amended to add additional TK male animals in Group 6 for Day 1 collection of TK samples at 875 mg/kg.
Blood samples were collected from 3 subsets of 3 animals/sex on Day 1 and Day 28 at pre-dose, 0.25, 0.5, 1, 2, 4. 8 and 24 hours (hr) post-dose for groups 2 to 6 and from one subset of 3 animals/sex at 0.25 hr post-dose for the vehicle group (group 1). […] Non-compartmental analysis (NCA) of plasma concentration data was conducted using Phoenix® WinNonlin®, version 8.0.

[2] = human, in vivo, po
From the text: Following screening, eligible healthy volunteer subjects were admitted to a single clinical study site and were randomized to 1 of 2 treatment sequences. […] In each period, a standardized breakfast was provided to subjects prior to administration of study drug (to compare the PK profiles in the clinically relevant fed state) and plasma samples were collected over a 48-hour period after dosing for evaluation of PK. Dosing between the 2 periods was separated by a minimum of 7 days. Subjects completed the study upon completion of the 48-hour post-dose assessments following dosing period 2.
All capsules were identical in size, shape, and external color.

[3] = 200 mg SD-559 (pirfenidone) BID, Huang et al.; in ng/mL; cited from earlier work
[4] = cited from earlier work
[5] = humans, cited from earlier work
[6] = cited from earlier work; remark: listed apart in the source
[7] = 30 mg/kg oral pretreatment 1 hour prior to LPS injection
[8] = 100 mg/kg oral pretreatment 1 hour prior to LPS injection
[9] = 300 mg/kg oral pretreatment 1 hour prior to LPS injection
[10] = Pirfenidone @801 mg, Rubino et al.
[11] = Lancaster et al. 2017, frequencies as high as
[12] = multinational post-marketing study
[13] = single-center retrospective observational study, 351 patients

## Cc1ccc(=O)n(-c2ccccc2)c1 [Pirfenidone, 5-methyl-1-phenyl-1H-pyridin-2-one]
LPS-induced plasma TNFα; [7]
  Plasma TNFα concentrations 4 hours after LPS: 346 ± 83 pg/mL
  Plasma TNFα concentrations 1.5 hours after LPS: 46138 ± 20266 pg/mL
LPS-induced plasma TNFα; [8]
  Plasma TNFα concentrations 4 hours after LPS: 207 ± 92 pg/mL
  Plasma TNFα concentrations 1.5 hours after LPS: 22230 ± 16540 pg/mL
LPS-induced plasma TNFα; [9]
  Plasma TNFα concentrations 4 hours after LPS: 131 ± 32 pg/mL
  Plasma TNFα concentrations 1.5 hours after LPS: 11495 ± 10753 pg/mL
LPS-induced plasma IL-6; [7]
  Plasma IL-6 concentrations 4 hours after LPS: 8886 ± 5321 pg/mL
  Plasma IL-6 concentrations 1.5 hours after LPS: 25173 ± 10651 pg/mL
LPS-induced plasma IL-6; [8]
  Plasma IL-6 concentrations 4 hours after LPS: 4603 ± 2524 pg/mL
  Plasma IL-6 concentrations 1.5 hours after LPS: 26226 ± 8434 pg/mL
LPS-induced plasma IL-6; [9]
  Plasma IL-6 concentrations 4 hours after LPS: 2361 ± 1185 pg/mL
  Plasma IL-6 concentrations 1.5 hours after LPS: 18692 ± 9996 pg/mL
[1]
  Accumulation after multiple dosing for 28 Days: No accumulation
[2]
  Tolerability of single doses: well tolerated
[3]
  observed Cmax: 2305
[4]; [10]
  AUC, % Change Fed vs Fasted: −15%
  Cmax, % Change Fed vs Fasted: −49%
  Tmax, % Change Fed vs Fasted: +500%
[4]; pirfenidone 801 mg dose, prior study
  Increase in Tmax, fed vs fasted: 500%
[5]; urine
  Share of recovered drug material excreted as unchanged pirfenidone: less than 1%
[5]
  Oral dose excreted in urine: approximately 80%
[6]; [11]
  Fatigue frequency (TEAE rate): ≤ 52.4 per 100PEY
  Nausea frequency (TEAE rate): ≤ 62.1 per 100 PEY
[6]; PASSPORT long-term observational safety study, Cottin et al. 2018
  Patients with permanent treatment discontinuation due to adverse drug reactions: 28.7%
[6]; b281
  Treatment discontinuation rate with predominant gastrointestinal side-effects: > 25%
[6]; compassionate use program, Raghu & Thickett 2013
  Patients who had an adverse event: 44%
[6]; [12]
  Patients who experienced an adverse event: Approximately 73%
  Patients with gastrointestinal symptoms: 38%
[6]; patients aged <65 years
  Patients with an ADR leading to discontinuation: 7.5%
  Patients with an ADR leading to dose modification/interruption: 18.0%
[6]; patients aged ≥80 years
  Patients with an ADR leading to discontinuation: 20.9%
  Patients with an ADR leading to dose modification/interruption: 32.7%
[6]; phase III trials
  Elevations of AST and ALT levels to >3x ULN: 3.2%
[6]; [13]
  Loss of appetite: 17%
  Nausea/vomiting: 15%
  Share of reported AEs that were GI-related: 75%
